According to patent US20130023491A1, “BETA-CELL REPLICATION PROMOTING COMPOUNDS AND METHODS OF THEIR USE” (President and Fellows of Harvard College, priority 2009, published 2013):
Where two headings read alike, the source gives them in different places.

Legend:
[1] = tested on: β-cells (dispersed rat islet cells); assay: primary islet β-cell replication assay (PDX-1/ki-67 co-staining, automated imaging); format: cell-based
Experimental: Rat islets were isolated as previously described in Gotoh M, Maki T, Kiyoizumi T, Satomi S, Monaco A P: An improved method for isolation of mouse pancreatic islets. Transplantation 40:437-438, 1985, contents of which are herein incorporated by reference in their entirety. Isolated islets were cultured overnight in a tissue culture incubator. The following morning, islets were trypsinized into cellular clusters of 1-3 cells, re-suspended in islet media (Mediatech 99-786-CV; 10% FBS serum (Valley Biomedial BS3033); 8.3 mM Glucose (Sigma G7528); 1× Penicillin/Streptomycin (Invitrogen 15070-063); 1× Glutamax (Invitrogen 35050-079)) and plated into the wells of a 96-well plate (Sigma CLS3904) that had been coated with 804G (a rat bladder carcinoma cell line) conditioned media. The cellular plating density was 60 k cells/well and greater than 95% viability was confirmed at the time of plating. […] For screening, compounds were tested at 1 uM concentration in duplicate. After 24-hours of compound treatment, cells were fixed with fresh 4% PFA (Electron Microscopy Services 15710) for 20 minutes and washed with PBS (VWR 45000-446). Antigen retrieval was performed by heating the cells to 90 degrees Celsius in 0.1 mM EDTA (Ambion AM9260G) in PBS. Cells were then washed and permeabalized with PBS/0.3% Triton X-100 (J.T.Baker X198-07) for 15 minutes. Immunocytochemical staining was then performed as follows. Antigen blocking was performed with 5% normal donkey serum (Jackson ImmunoResearch 017-000-121) in PBS for an hour. Staining was performed by overnight incubation with primary antibody at 4 degrees Celsius. For the primary screen, PDX-1 antibody (R&D AF2419) was used to reveal beta-cells and ki-67 antibody (BD Bioscience 556003) to visualize proliferating cells. Without wishing to be bound by theory, the failure of prior beta-cell replication screens is primarily a consequence of using a cytoplasmic marker (Insulin) as the β-cell identifier. The use of a cytoplasmic marker prevents accurate attribution of nuclear replication to a specific cell identity i.e., in dense culture it is impossible to attribute a cytoplasm to a specific nucleus given the proximity to multiple nuclei. Additional Immunohistochemistry antibodies included Phosphohistone 3 (Millipore 06-570), Insulin (Dako A0564), Glucagon (Millipore 4031-01F) and Vimentin (Millipore ab5733). For western blotting anti-bodies included ADK (Abcam ab38010, ab64825) and RAN (BD Bioscience 610340) as a loading control.
Once compound-treated islet cells were stained, β-cell replication was assessed via automated image acquisition and analysis using a Cellomics ArrayScanVTI. The acquisition thresholds/parameters were established such that the computer-based calls of replication events were consistent with human-based calls. The parameters used were directed at the identification of (1) PDX-1+ cells and (2) ki-67 positive staining within the PDX-1 positive area. The algorithm was a three step process. First the nuclear area was predicted by the software based upon the expected PDX-1 staining pattern. Second PDX-1 positive cells (selected objects) were counted based upon the average staining intensity within the predicted nuclear area (Note: total signal intensity was essentially equal in quality but was not typically used). Third, the number of PDX-1 positive cells (selected objects) that simultaneously were Ki-67 positive was determined by determining the average fluorescence intensity of ki-67 staining within the predicted nuclear area (again, total intensity was also occasionally used with equal efficacy). The specific thresholds (fluorescence intensities) varied from experiment to experiment. In general, the basal replication rate was set at roughly 1% i.e., the algorithm was varied until 1% of DMSO treated PDX+ cells were reported to be double positive for PDX-1 and ki67. […]

[2] = tested on: mouse dermal fibroblasts; assay: Ki-67 proliferation of mouse dermal fibroblasts; format: cell-based; conditions: A10 0.019-10 uM
Experimental: Using a protocol similar to as described in Example 1, β-cells or mouse dermal fibroblasts were treated with 10 uM, 5 uM, 2.5 uM, 1.25 um, 0.625 uM, 0.3125 uM, 0.156 uM, 0.078 uM, 0.04 uM, or 0.019 uM of A10.

[3] = tested on: β-cells; assay: quantification of β-cell number (PDX-1+ cell count); format: cell-based, rat; conditions: day 6 (144 h), 5-IT 2 μM, 15 mM glucose; control wells 20%
Experimental: To quantify the number of β-cells at 0 h, 96 h and 144 h of culture, cells were plated in 96-well plates as above in the presence of vehicle only or 5-IT and 15 mM glucose; final DMSO dilution was 1:1000 in all wells. Time Oh was after cells had been allowed 48 h to adhere. Each condition was represented by 16 separate wells per plate to accommodate small fluctuations in plating density. Media changes were performed every 48 h. Cells were fixed at the appropriate time point and stored to be stained simultaneously for PDX-1. Automated cell counting was performed using the Cellomics ArrayScanVTI which identified PDX-1^+ cells.

[4] = tested on: murine hepatocytes
Experimental: Total cell number was assessed with DAPI and replicating cells were ki-67^+. The Cellomics ArrayScanVTI was used for image acquisition and analysis.

Compound: Nc1ncnc2c1c(I)cn2[C@@H]1O[C@H](CO)[C@@H](O)[C@H]1O [A10, 5-iodotubercidin]
- induction of β-cell replication in the screening assay ([1]; 1 uM, 24 hours): 2.3 fold
- induction of the replication rate above the base-line rate, combination with high glucose ([1]; 5-IT 2 μM plus high glucose): 5 fold
- β-cell replication effect of addition of 5-IT to the GLP-1R agonists ([1]; 24 h, 5-IT 2 μM plus GLP-1 or Ex-4): ~4 fold
- increase of β-cell replication ([1]; 24 h, 5-IT 2 μM, GLP-1 and Ex-4 20 nM and 4 nM, normalized to DMSO): ~2.5 fold
- effect of glucose concentration on % beta-cell replication in treated samples ([1]; A10 2 μM, 0-25 mM glucose): little effect
- % Ki-67 positive cells versus serum concentration ([1]; A10 2 μM, 0.2%, 2.0% or 20% serum): increased with increasing serum concentration
- % of Ki-67 positive β-cells (PDX-1 and Ki-67 positive cells), dose curve ([1]; A10 0.019-10 uM, B8 0.23-30 uM): increase in a dose dependent manner
- EC50 ([1]; FIG. 13c dose-response curves, read-out: EC50, β-cell proliferation in rat islet cultures): 4700 nM
- EC50 ([1]; dose curves FIG. 2a (A10) and FIG. 3 (B8), Ki-67 positive β-cells, read-out: EC50 for β-cell proliferation): 470 nM
- % Ki-67 positive mouse dermal fibroblasts [2]: did not change
- increase in number of β-cells compared to time 0 [3]: 40%
- tolerability by cultured hepatocytes [4]: not well tolerated
